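1) Cells in 96-well plates. 2) Compound, 48 h, 5 concentrations. 3) Linear interpolation between surrounding doses. 4) Unreached endpoint = highest concentration. Here, GI50 denotes the concentration required for 50% inhibition of growth. TGI is the concentration that stops growth completely.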
Tests used:
Assay in all cases: inhibition of tumour cell growth, NCI panel, 48 h
EKVX NSCLC = test system: EKVX NSCLC
HCC-2998 colon = test system: HCC-2998 colon
HT29 colon = test system: HT29 colon
KM12 colon = test system: KM12 colon
MALME-3M melanoma = test system: MALME-3M melanoma
NCI-H522 lung = test system: NCI-H522 lung
SF-268 CNS = test system: SF-268 CNS
SNB-19 CNS = test system: SNB-19 CNS
TK-10 renal = test system: TK-10 renal
A498 renal = test system: A498 renal

Structure (SMILES)	GI50 (EKVX NSCLC) [µM]	TGI (EKVX NSCLC) [µM]	GI50 (HCC-2998 colon) [µM]	TGI (HCC-2998 colon) [µM]	GI50 (HT29 colon) [µM]	TGI (HT29 colon) [µM]	GI50 (KM12 colon) [µM]	TGI (KM12 colon) [µM]	GI50 (MALME-3M melanoma) [µM]	TGI (MALME-3M melanoma) [µM]	GI50 (NCI-H522 lung) [µM]	TGI (NCI-H522 lung) [µM]	GI50 (SF-268 CNS) [µM]	TGI (SF-268 CNS) [µM]	GI50 (SNB-19 CNS) [µM]	TGI (SNB-19 CNS) [µM]	GI50 (TK-10 renal) [µM]	TGI (TK-10 renal) [µM]	TGI (A498 renal) [µM]	GI50 (A498 renal) [µM]
CC(C)(C)OC(=O)NCCCCCCCCCn1c2c(c3ccccc3c1=O)C(=O)c1ccccc1-2	49.2	> 100	> 100	> 100	> 100	> 100	> 100	> 100	13.9	43	44.9	> 100	32.6	> 100	28.2	> 100	17.4	45.8		
O=C(Nc1cc(Cl)c(I)c(Cl)c1)C(F)(F)F		> 100		34.2		37.4		85.4				42.2		> 100		> 100			47.8	
COc1ccc(-c2nc(NC(=O)CS(=O)(=O)c3ccc(F)cc3)sc2C)cc1			26	94.7	11	39.4	14.6	61	23	66.4			28.7	> 100	33.4	> 100	28.9	81.2	32.8	11.6
Cc1cccc(NC(=O)c2c(N)[n+]([O-])c3ccccc3[n+]2[O-])c1		31.3				27.7		30.3		27.1		20		22.8		29.3			29.8	
CN[C@@H](C)C(=O)N[C@H](C(=O)N1CCC[C@H]1c1nc(C(=O)c2ccc(F)cc2)cs1)C1CCCCC1			16	31.2	20.5	42.8	21.8	51.4	4.08	20	3.45	16.5	46.9	> 100	53.9	> 100	22.3	45.6	25.4	6.59
COC(=O)CNC(=O)C(=O)c1c(O)c(O)c(C(C)C)c2cc(C)c(-c3c(C)cc4c(C(C)C)c(O)c(O)c(C(=O)C(=O)NCC(=O)OC)c4c3O)c(O)c12	1.2	4.99	1.92	7.1	1.58	5.36	1.39	7.29	2.23	11	1.32	3.43	1.88	8.75	1.53	7.92			12.2	2.6
CCCC(=O)Oc1ccc(/C(=C(\C)c2ccc(Cl)cc2)c2ccc(OCCN(CC)CC)cc2)cc1	7.2	21	2.67	7.06	1.85	4.06	3.05	10.7	1.74	3.55	12.9	29.5	3.81	19	2.81	7.29	5.29	20.7		
O=C(n1c2ccccc2c2n[nH]c(=S)nc21)C(F)(F)F		> 100		> 100		> 100		> 100		> 100		> 100		> 100		> 100		> 100		
COc1ccc([N+](=O)[O-])c2c(NCCCN(C)C)c(C)c(C)nc12				> 100		> 100		> 100		> 100		> 100		> 100		> 100		> 100	> 100	
N[C@H]1CCC[C@@H](O)C1O (stereo partly specified)		> 100		> 100		> 100		> 100		> 100		> 100		> 100		> 100			> 100	
Cc1c(C)c2cc3c(=O)c(CCl)coc3c(C)c2oc1=O		> 100		> 100				> 100		> 100		> 100		> 100		> 100		> 100	> 100	
N#CC1=C(N)NC(=O)C(C#N)C12Nc1ccccc1S2 (stereo unspecified)	> 100	> 100			> 100	> 100	82	> 100	64	> 100	19.1	60.5	> 100	> 100	90.5	> 100	38.9	> 100		
CC(=O)/C=C1\CC(=O)N(C)c2ccccc2N1		> 100		> 100		> 100		> 100		> 100		> 100		> 100		> 100		> 100		
CN(C)CCCNc1ccnc2c([N+](=O)[O-])cccc12		36		27.1		12.1		> 100		8.61		38.2		67.4		54.5		> 100		
CC(=O)OC1(Sc2ccccc2)CC2[C@H]3COC(C)(C)O[C@H]3CC[C@@]2(C)CC1=O (stereo partly specified)		> 100				> 100		> 100		> 100		79.8				> 100		> 100		
COc1ccc2c(c1OC)C(=O)C2		> 100				> 100		> 100		> 100		> 100		> 100		> 100		> 100		
CC(C)(C)c1cc(C2c3cc4c(cc3OC(O)(CO)C2C(=O)O)OCO4)cc(C(C)(C)C)c1O (stereo unspecified) (tested in a mixture with another compound)		50.5				27.2				37.3						25.7		45.4		
Nc1c(C(=O)c2cccc(-c3cccnc3)c2)cnn1-c1ccc(F)cc1			> 25	> 25	> 25	> 25	> 25	> 25	> 25	> 25	6.12	24.7	> 20.9	> 25	> 25	> 25	> 25	> 25	> 25	> 25
COc1ccc2nc3cc(Cl)ccc3c(Sc3ccc(N)cc3)c2c1		25.4		25.1				19.4		30.1		16.2		34.4		33.4		25.9	76.3	

From PubChem BioAssay (NCI)
